Experimental data from patent publication US5559141A, “Selective aromatase inhibiting 4(5)-imidazoles” (Orion-yhtyma Oy, priority 1991, dated 1996).

Columns and labels:
desmolase = assay: inhibition of cholesterol side chain cleavage (SCC) activity (desmolase); format: biochemical; settings: mitochondrial fraction from human placenta or bovine adrenals, 37° C., 30 min; read-out: DESMOLASE IC-50
Protocol: Incubations were carried out in 1,5 ml Eppendorf plastic tubes, and an Eppendorf shaker, centrifuge and incubator were used as a unit. […] Controls contained all the above substances but the enzyme preparation was inactivated prior to the incubation by the addition of 900 μof methanol. The mitochondrial fraction (1 mg protein) from human placenta or bovine adrenals was used as a source of enzyme. After 30 min incubation at 37° C., the reaction was terminated by the addition of 900 μl of methanol; 1500 dpm of marker ^14 C-4-pregnenolone was added to each incubate and the tubes were vigorously shaken. […] The column was washed with one ml of 75% methanol and then with 3 ml of 80% methanol. The 80% methanol eluate was run into the counting vial and 10 ml of scintillation liquid was added. Radioactivity was counted using a double-label program on a liquid scintillation counter (LKB RackBeta). Typical activities for placental and bovine adrenal enzyme preparation were 0,5-3 and 50-100 pmol pregnenolone formed/mg protein/min,respectively.
In inhibition experiments, the substance (final concentration range from 1 to 1000 μM) was added into incubation mixture in a volume of 10-20 μl, usually as methanol or ethanol solution. The same volume of the solute was added into control incubation vial.

[1] = acute toxicity, LD50, oral, mice; settings: mouse, in vivo, young adult female NMRI-Stmin mice
Protocol: Acute toxicity, LD50, was determined by using young adult female mice of NMRI-Stmin. The administration of the test compounds was oral.

human aromatase = molecular target: T1, human aromatase (Homo sapiens, UniProt P11511); assay: in vitro inhibition of aromatase (human placental microsomes, 3H2O release); format: biochemical; settings: 37° C., 40 min, read-out: AROMATASE IC-50 (converted)
T1 construct: The enzyme was prepared from human placenta, which is rich of the enzyme; from tissue; host or cells: human placenta, microsomal fraction (100000×g precipitate), not further purified
T1 sequence (P11511 1-503): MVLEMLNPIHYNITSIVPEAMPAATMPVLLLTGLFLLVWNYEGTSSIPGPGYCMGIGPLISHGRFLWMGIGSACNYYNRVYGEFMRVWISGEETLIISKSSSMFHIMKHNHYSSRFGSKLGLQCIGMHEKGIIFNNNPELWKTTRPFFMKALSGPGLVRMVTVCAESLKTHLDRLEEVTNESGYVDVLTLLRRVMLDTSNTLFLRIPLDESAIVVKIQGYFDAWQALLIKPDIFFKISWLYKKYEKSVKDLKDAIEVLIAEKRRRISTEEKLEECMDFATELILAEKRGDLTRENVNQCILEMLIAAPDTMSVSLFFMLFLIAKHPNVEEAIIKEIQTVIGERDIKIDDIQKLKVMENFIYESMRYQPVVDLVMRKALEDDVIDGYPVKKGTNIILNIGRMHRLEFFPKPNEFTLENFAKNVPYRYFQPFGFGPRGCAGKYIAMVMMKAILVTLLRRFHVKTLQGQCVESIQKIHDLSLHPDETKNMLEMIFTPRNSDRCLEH
Protocol: Human aromatase enzyme was used. The enzyme was prepared from human placenta, which is rich of the enzyme. Microsomal fraction (100000×g precipitate) was prepared by centrifugation. The enzyme preparation was used without further purification. […] The incubation was camed out at 37° C. for 40 min. Aromatization of 1,2[^3 H]-androstene-3,17-dione results in the production of ^3 H2 O. The tritiated water and the tritiated substrate are easily separated by a Sep-Pak™ minicolumn, which absorbs the steroid but allows free water elution. Radioactivity was counted by a liquid scintillation counter. Aromatase inhibition was evaluated by comparing the ^3 H2 O-radioactivity of inhibitor treated samples to controls containing no inhibitor. IC-50 values were calculated as concentrations which inhibited the enzyme activity 50%.

| IC50 (human aromatase) | Compound | IC50 (desmolase) | LD50 [1] |
| --- | --- | --- | --- |
|  | N#Cc1ccc(C(=CCCc2ccc(F)cc2)c2c[nH]cn2)cc1 (single isomer, unassigned; isomer a) [Compound 4b, 4-[1-(4-cyanophenyl)-4-(4-fluorophenyl)-1-butenyl]-1H-imidazole, isomer a] | 33 µM |  |
|  | N#Cc1ccc(C(=CCc2ccc(F)cc2)c2c[nH]cn2)cc1 (single isomer, unassigned; isomer a) [Compound 6b, 4-[1-(4-cyanophenyl)-3-(4-fluorophenyl)-1-propenyl]-1H-imidazole, isomer a] | 36 µM | > 400 mg/kg |
|  | N#Cc1ccc(C(=CCCc2ccc(F)cc2)c2c[nH]cn2)cc1 (single isomer, unassigned; isomer b) [Compound 5b, 4-[1-(4-cyanophenyl)-4-(4-fluorophenyl)-1-butenyl]-1H-imidazole, isomer b] | > 1000 µM |  |
|  | N#Cc1ccc(C(CCc2c[nH]cn2)c2ccccc2)cc1 (stereo not shown) [Compound 1a, 4-[3-(4-cyanophenyl)-3-phenylpropyl]-1H-imidazole] | 14 µM |  |
|  | N#Cc1ccc(C(CCCc2ccccc2)c2c[nH]cn2)cc1 (stereo not shown) [Compound 1b, 4-[1-(4-cyanophenyl)-4-phenylbutyl]-1H-imidazole] | 12 µM |  |
|  | N#Cc1ccc(C(CCc2c[nH]cn2)c2ccc(C#N)cc2)cc1 [Compound 2a, 4-[3,3-bis(4-cyanophenyl)propyl]-1H-imidazole] | 36 µM |  |
|  | N#Cc1ccc(C(CCCc2ccc(F)cc2)c2c[nH]cn2)cc1 (stereo not shown) [Compound 2b, 4-[1-(4-cyanophenyl)-4-(4-fluorophenyl)butyl]-1H-imidazole] | 20 µM |  |
|  | N#Cc1ccc(C(CCc2c[nH]cn2)c2ccc(F)cc2)cc1 (stereo not shown) [Compound 3a, 4-[3-(4-cyanophenyl)-3-(4-fluorophenyl)propyl]-1H-imidazole] | 43 µM | 210 mg/kg |
|  | N#Cc1ccc(C(=CCCc2ccc(F)cc2)c2c[nH]cn2)cc1 [Compound 3b, 4-[1-(4-cyanophenyl)-4-(4-fluorophenyl)-1-butenyl)-1H-imidazole] | 26 µM |  |
| 0.65 µM | N#Cc1ccc(C(=CCc2c[nH]cn2)c2ccc(F)cc2)cc1 [Compound 4a, 4-[3-(4-cyanophenyl)-3-(4-fluorophenyl)-2-propenyl]-1H-imidazole] | 62 µM |  |
| 3.2 µM | N#Cc1ccc(C(=CCc2cncn2Cc2ccccc2)c2ccc(C#N)cc2)cc1 [Compound 5a, 1-benzyl-5-[3,3-bis(4-cyanophenyl)-2-propenyl]-1H-imidazole] |  |  |
|  | N#Cc1ccc(C(CCCc2c[nH]cn2)c2ccc(C#N)cc2)cc1 [Compound 6a, 4-[4,4-bis(4-cyanophenyl)butyl]-1H-imidazole] | 47 µM |  |
| 5 µM | N#Cc1ccc(C(CCCc2cncn2Cc2ccccc2)c2ccc(C#N)cc2)cc1 [Compound 7a, 1-benzyl-5-[4,4-bis(4-cyanophenyl)butyl]-1H-imidazole] | 22 µM |  |
| 0.97 µM | N#Cc1ccc(C(=CCc2c[nH]cn2)c2ccc(C#N)cc2)cc1 [Compound 8a, 4-[3,3-bis(4-cyanophenyl)-2-propenyl]-1H-imidazole] | 33 µM |  |
| 1 µM | N#Cc1ccc(CC=C(c2ccc(F)cc2)c2c[nH]cn2)cc1 [Compound 8b, 4-[3-(4-cyanophenyl)-1-(4-fluorophenyl)-1-propenyl]-1H-imidazole] |  |  |
|  | N#Cc1ccc(C(CCc2c[nH]cn2)c2ccc(C(F)(F)F)cc2)cc1 (stereo not shown) [Compound 9a, 4-[3-(4-cyanophenyl)-3-(4-trifluoromethylphenyl)propyl]-1H-imidazole] | 64 µM |  |
|  | COc1ccc(C(CCc2c[nH]cn2)c2ccc(C#N)cc2)cc1 (stereo not shown) [Compound 10a, 4-[3-(4-cyanophenyl)-3-(4-methoxyphenyl)propyl]-1H-imidazole] | 33 µM |  |
